Data as given in US20070101445A1, “Transgenic mice carrying the HP-2 gene and uses as models for vascular diseases” (priority 2005, published 2007).

Experiments:
[1] = tested on: Hp 0 mice; assay: Chronic supplementation with vitamin E, renal hypertrophy in Hp 0 mice; type: in vivo, mouse
Protocol: (§1) Chronic supplementation with vitamin E. Wild-type or Hp 0 mice (n=5 in each group) were treated for 7 months with placebo (water) or vitamin E (Merck, racemic alpha-tocopherol acetate) at a concentration of 40 mg/kg/day administered daily in the drinking water from 4 weeks of age.
(§2) Preparation of renal tissue for morphometric and histochemical analysis. Mice were sacrificed with intraperitoneal injection of pentabarbitone sodium. Kidneys were excised and weighed and the half-middle portion was fixed in 4% buffered BP formaldehyde solution (Gadot, Netanya, Israel) and embedded in paraffin. For both the morphometric and histochemical analysis, there were four mice in each of the six groups (wild type, Hp 0, and Hp 2, with and without diabetes).
(§3) Statistical analysis. Values are reported as the mean±SEM. Comparisons between groups were performed using two-way ANOVA under a general linear model, with Hp phenotype as one factor and time, presence of diabetes, or treatment with vitamin E as the second factor. Pairwise comparisons were carried out using the Fisher's protected least significant difference (PLSD) test. A p-value of less than 0.05 was taken as being statistically significant. Statistical analyses were performed using the SPSS statistical software version 11.5 (Chicago, Ill.). […]

[2] = tested on: Wild-type mice; assay: Chronic supplementation with vitamin E, renal mass in wild-type mice; type: in vivo, mouse; conditions: WT mice, 40 mg/kg/day vitamin E orally from 4 weeks, sacrificed at 8 months, mean±SEM, n=5
Protocol: as §1, §2, §3

SMILES: CC(=O)Oc1c(C)c(C)c2c(c1C)CC[C@@](C)(CCC[C@H](C)CCC[C@H](C)CCCC(C)C)O2 (racemic) [Vitamin E, racemic alpha-tocopherol acetate]
- RM/BM (renal mass normalized for body weight) ([1]; 40 mg/kg/day vitamin E orally from 4 weeks, sacrificed at 8 months, mean±SEM, n=5): 11.01 ± 0.24 mg/g
- renal mass in Hp 0 animals receiving vitamin E compared to Hp 0 mice who did not receive vitamin E ([1]; vitamin E for 7 months): reduced
- RM/BM (renal mass normalized for body weight) [2]: 11.42 ± 0.98 mg/g
